# Patent publication US12290521B2, “Methods and materials for identifying and treating BET inhibitor-resistant cancers” (Mayo Foundation for Medical Education and Research, priority 2018, dated 2025)
# “Also recorded” adds a separate entry of the source.
# What was measured:
# SPOP and BRD2/3/4 = test: Western blot, co-IP and in vivo ubiquitination assay in 293T cells; assay type: cell-based, human; conditions: JQ1 1 μM, 24 hours
# Description: To immunoprecipitate the ectopically expressed FLAG-tagged proteins, transfected cells were lysed 24 hours post-transfection in BC100 buffer. The whole-cell lysates were immunoprecipitated with the monoclonal anti-FLAG antibody-conjugated M2 agarose beads (Sigma-Aldrich) at 4° C. overnight. After three washes with lysis buffer, followed by two washes with BC100 buffer, the bound proteins were eluted using FLAG-Peptide (Sigma-Aldrich) prepared in BC100 for 3 hours at 4° C. The eluted protein sample was resolved by SDS-PAGE. To immunoprecipitate the endogenous proteins, cells were lysed with 1× cell lysis buffer (Cell Signaling Technology), and the lysate was centrifuged. The supernatant was precleared with protein A/G beads (Sigma-Aldrich) and incubated with the indicated antibody and protein A/G beads at 4° C. overnight. Beads were washed five times with lysis buffer and resuspended in sample buffer and analyzed by SDS-PAGE.
# Cell lysates or immunoprecipitates were subjected to SDS-PAGE, and proteins were transferred to nitrocellulose membranes (GE Healthcare Sciences). The membranes were blocked in Tris-buffered saline (TBS, pH 7.4) containing 5% non-fat milk and 0.1% Tween-20, washed twice in TBS containing 0.1% Tween-20, and incubated with primary antibody overnight at 4° C., followed by secondary antibody for 1 hour at room temperature. The proteins of interest were visualized using ECL chemiluminescence system (Santa Cruz Biotechnology). Densitometry analysis of protein bands was analyzed on the Gel-Pro Analyzer software.
# For the in vivo ubiquitination assay, C4-2 cells were transfected with plasmids for HA-Ub, FLAG-BRD4, and other indicated proteins. C ells were treated with 20 μM MG132 for 8 hours before being harvested and lysed with lysis buffer (50 mM Tris-HCl, pH 7.5, 150 mM NaCl, 1% NP40, 0.5% sodium deoxycholate, 1× protease inhibitor cocktail (PIC)). The lysate was subjected to co-immunoprecipitation using anti-FLAG-conjugated agarose beads as described in the Co-IP assay.
# DUB3 = conditions: Borbely et al., Oncotarget 2015; cited from earlier work
# C4-2 cells = test: Cell proliferation assay (MTS) and trypan blue assay; assay type: cell-based, human
# Description: CellTiter 96® AQueous One Solution Cell Proliferation Assay (MTS) (Promega) was used to measure cell growth according to the manufacturer's instructions. Briefly, cells were plated in 96-well plates at a density of 2,000 cells per well. At the indicated times, 20 μL of Cell Titer 96R Aqueous One Solution Reagent was added to medium. After incubating for 1 hour at 37° C. in the cell incubator, cell growth was measured in a microplate reader at 490 nm.
# Trypan blue assay was performed to measure cell growth according to the manufacturer's instructions. Briefly, cells were plated in 6-well plates at a density of about 5×10^4 to about 1×10^5 cells per well. At the indicated time points, cells were trypsinized and suspended in 1 mL 1×PBS. 100 μL cells and 100 μL trypan blue solution (Sigma-Aldrich) were mixed, and the number of viable cells was measured using the Bio-Rad automated cell counter.
# Cell proliferation was measured by using the MTS assay (Promega). Prostate cancer cells (2,000 per well) were seeded in 96-well plates with 100 μL of culture medium. Each well was added with 20 μL of CellTiter 96R AQueous One Solution Reagent (Promega) and absorbance was measured in a microplate reader at 490 nm.
# BRD4 = test: Western blot of BRD4 protein, ubiquitination and half-life in DU145 cells; assay type: cell-based, human; conditions: DU145 cells; JQ1, 24 hours
# Description: Co-Immunoprecipitation (Co-IP) Cells were harvested and lysed by IP buffer (50 mM Tris-HCl, pH 7.4, 150 mM NaCl, 1% Triton X-100, 1% sodium deoxycholate and 1% protease inhibitor cocktails) on ice for more than 15 minutes. Cell lysate was centrifuged for 15 minutes at 13,000 rpm at 4° C., and the supernatant was incubated with primary antibodies and protein A/G agarose beads (Thermo Fisher Scientific) with rotating at 4° C. overnight. The next day, the pellet was washed at least six times with 1×IP buffer on ice, and then subjected to western blotting analysis. Western Blotting
# Cells were harvested and lysed by IP buffer (50 mM Tris-HCl, pH 7.4, 150 mM NaCl, 1% Triton X-100, 1% sodium deoxycholate and 1% protease inhibitor cocktails) on ice for more than 15 minutes. Cell lysate was centrifuged for 15 minutes at 13,000 rpm at 4° C., and the supernatant was quantified by BCA protein quantification assay. Equal amounts of protein sample were added into 4× sample buffer and boiled for 5 minutes. The sample was subjected to SDS-PAGE analysis and transferred to nitrocellulose membrane. The membrane was blocked by 5% milk for 1 hour at room temperature and incubated with primary antibody at 4° C. overnight. The next day, the membrane was washed three times with 1×TBST and incubated with horseradish peroxidase-conjugated secondary antibodies for 1 hour at room temperature. The protein bands were visualized by SuperSignal West Pico Stable Peroxide Solution (Thermo Fisher Scientific).
# [1] = tested on: prostate cancer patient-derived organoid lines; test: Organoid cell viability assay (2D and 3D); assay type: cell-based, human; conditions: SPOP W131R-expressing organoid compared to two SPOP WT counterparts; 2D and 3D growth
# Description: Organoid cells were obtained from Dr. Yu Chen from MSKCC and cultured according to the methodology as described elsewhere (Drost et al., Nat. Protoc., 11:347-358 (2016)). In brief, organoid cells were imbedded in 40 μL Matrigel each drop and cultured in FBS free DMEM/F12 medium supplied with several growth factors. Cell viability assays were conducted by plating 2,000 organoid cells per well of a collagen coated 96-well cell culture plate in […] media with vehicle (DMSO) control or JQ1 (0.05˜1 μM). Viable cells were counted by using a CellTiter-Glo (Promega) Luminescent Cell Viability Assay Kit.
smiles,measurement,setting,value
Cc1sc2c(c1C)C(c1ccc(Cl)cc1)=N[C@@H](CC(=O)OC(C)(C)C)c1nnc(C)n1-2 [JQ1],SPOP-BRD2/3/4 protein interaction,SPOP and BRD2/3/4,diminished
same,SPOP-induced BRD2/3/4 ubiquitination and degradation,SPOP and BRD2/3/4,partially blocked
same,DUB3 mRNA level,DUB3,rapid upregulation
same,sensitivity of cell growth to JQ1,"C4-2 cells; BRD4 knockout C4-2 cells with BRD2/3 largely depleted, JQ1 up to 500 nM, 24 hours",highly resistant
same,sensitivity of cell growth to JQ1,"C4-2 cells; SPOP F133V-expressing C4-2 cells, JQ1 2 μM, MTS",JQ1 resistance
same,effect on cell growth,"C4-2 cells; SPOP-F133V-expressing C4-2 cells, JQ1 0.25 μM every other day",largely impeded
same,effect on cell growth,"C4-2 cells; SPOP-knockdown C4-2 cells, JQ1 0.25 μM every other day",largely attenuated
same,cell growth,"C4-2 cells; control (shC / EV) C4-2 cells, JQ1 0.25 μM every other day",robustly inhibited; also recorded: inhibited growth
same,BRD4 polyubiquitination,BRD4,markedly inhibited
same,sensitivity of organoid to JQ1,[1],resistant
